Assay results published in PubChem BioAssay (NCI).
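Grown in 96-well plates, cells were treated for 48 hours with each compound at five concentrations. Insufficient inhibition: endpoint recorded as highest concentration tested. The concentration for full growth arrest is given as TGI.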

Assays:
Assay in all cases: NCI-60 cell line screen, 48 h
[1] = system: RPMI-8226 leukemia
[2] = system: HCC-2998 colon
[3] = system: HCT-15 colon
[4] = system: OVCAR-5 ovarian
[5] = system: SNB-19 CNS
[6] = system: NCI-H23 lung
[7] = system: SF-295 CNS
[8] = system: KM12 colon
[9] = system: HCT-116 colon
[10] = system: UO-31 renal
[11] = system: SN12C renal
[12] = system: ACHN renal
[13] = system: EKVX NSCLC
[14] = system: SNB-78 CNS
[15] = system: OVCAR-8 ovarian
[16] = system: UACC-257 melanoma
[17] = system: TK-10 renal
[18] = system: A549 NSCLC
[19] = system: OVCAR-3 ovarian
[20] = system: SK-MEL-28 melanoma
[21] = system: SF-268 CNS
[22] = system: SR leukemia
[23] = system: SF-539 CNS
[24] = system: 786-0 renal
[25] = system: K-562 leukemia
[26] = system: U251 CNS
[27] = system: KM20L2 colon
[28] = system: COLO 205 colon
[29] = system: UACC-62 melanoma
[30] = system: NCI-H522 lung
[31] = system: DMS 273 small cell lung
[32] = system: CCRF-CEM leukemia
[33] = system: LOX IMVI melanoma
[34] = system: A498 renal
[35] = system: RXF 393 renal
[36] = system: M14 melanoma
[37] = system: NCI-H226 lung
[38] = system: CAKI-1 renal
[39] = system: DMS 114 small cell lung
[40] = system: OVCAR-4 ovarian
[41] = system: HOP-62 NSCLC
[42] = system: MOLT-4 leukemia
[43] = system: LXFL 529 NSCLC
[44] = system: SK-MEL-2 melanoma
[45] = system: HT29 colon
[46] = system: SW-620 colon
[47] = system: NCI-H460 lung
[48] = system: HOP-92 NSCLC
[49] = system: MALME-3M melanoma
[50] = system: DLD-1 colon
[51] = system: IGROV1 ovarian
[52] = system: HOP-18 NSCLC
[53] = system: SK-MEL-5 melanoma
[54] = system: SK-OV-3 ovarian

O=C(O)CCCSC(=O)Nc1ccc(N=Nc2ccccc2)cc1
TGI [1]: > 100 µM
TGI [2]: > 100 µM
TGI [3]: > 100 µM
TGI [4]: > 100 µM
TGI [5]: > 100 µM
TGI [6]: > 100 µM
TGI [7]: > 100 µM
TGI [8]: > 100 µM
TGI [9]: > 100 µM
TGI [10]: > 100 µM
TGI [11]: > 100 µM
TGI [12]: > 100 µM
TGI [13]: > 100 µM
TGI [14]: > 100 µM
TGI [15]: > 100 µM
TGI [16]: > 100 µM
TGI [17]: > 100 µM
TGI [18]: > 100 µM
TGI [19]: > 100 µM
TGI [20]: > 100 µM
TGI [21]: > 100 µM
TGI [22]: > 100 µM
TGI [23]: > 100 µM
TGI [24]: > 100 µM
TGI [25]: > 100 µM
TGI [26]: > 100 µM
TGI [27]: > 100 µM
TGI [28]: > 100 µM
TGI [29]: > 100 µM
TGI [30]: > 100 µM
TGI [31]: > 100 µM
TGI [32]: > 100 µM
TGI [33]: > 100 µM
TGI [34]: > 100 µM
TGI [35]: > 100 µM
TGI [36]: > 100 µM
TGI [37]: > 100 µM
TGI [38]: > 100 µM
TGI [39]: > 100 µM
TGI [40]: > 100 µM
TGI [41]: > 100 µM
TGI [42]: > 100 µM
TGI [43]: > 100 µM
TGI [44]: > 100 µM
TGI [45]: > 100 µM
TGI [46]: > 100 µM
TGI [47]: > 100 µM

COc1ccc(/C=N/N=C(\N)NO)cc1O
TGI [1]: > 100 µM
TGI [2]: > 100 µM
TGI [3]: > 100 µM
TGI [4]: > 100 µM
TGI [5]: > 100 µM
TGI [6]: > 100 µM
TGI [8]: > 100 µM
TGI [48]: 64.2 µM
TGI [9]: > 100 µM
TGI [10]: > 100 µM
TGI [11]: > 100 µM
TGI [13]: > 100 µM
TGI [14]: > 100 µM
TGI [18]: > 100 µM
TGI [49]: 63.6 µM
TGI [20]: > 100 µM
TGI [21]: > 100 µM
TGI [23]: 94.4 µM
TGI [24]: 55.7 µM
TGI [50]: > 100 µM
TGI [25]: > 100 µM
TGI [26]: > 100 µM
TGI [28]: > 100 µM
TGI [51]: > 100 µM
TGI [29]: > 100 µM
TGI [32]: > 100 µM
TGI [52]: > 100 µM
TGI [33]: > 100 µM
TGI [35]: > 100 µM
TGI [53]: > 100 µM
TGI [37]: > 100 µM
TGI [38]: > 100 µM
TGI [39]: > 100 µM
TGI [40]: > 100 µM
TGI [42]: > 100 µM
TGI [43]: > 100 µM
TGI [54]: > 100 µM
TGI [44]: > 100 µM
TGI [45]: > 100 µM
TGI [46]: > 100 µM
TGI [47]: > 100 µM
